Settings: 343.15 K, Liquid, Vibrating tube method

CCCCCCC(=O)OCC(COC(=O)CCCCCC)(COC(=O)CCCCCC)COC(=O)CCCCCC [pentaerythritol tetraheptanoate]
Settings | mass density [kg/m3]
18415 kPa | 953.8
18445 kPa | 953.9
18482 kPa | 953.8
18513 kPa | 954
18540 kPa | 953.8
18543 kPa | 953.8
18564 kPa | 954
18575 kPa | 953.9
18587 kPa | 953.9
18610 kPa | 954
18613 kPa | 954
18633 kPa | 954
18645 kPa | 953.9
18661 kPa | 954.1
18683 kPa | 953.9
18685 kPa | 954.1
18708 kPa | 954
18712 kPa | 954
18737 kPa | 953.9
18761 kPa | 954.1
18790 kPa | 954
18814 kPa | 954
18842 kPa | 954
18866 kPa | 954.2
18891 kPa | 954
18920 kPa | 954.3
18944 kPa | 954.2
18968 kPa | 954.1
18992 kPa | 954.2
19022 kPa | 954.1
19041 kPa | 954.1
19047 kPa | 954.2
19065 kPa | 954.3
19072 kPa | 954.3
19094 kPa | 954.3
19102 kPa | 954.3
19119 kPa | 954.4
19127 kPa | 954.3
19144 kPa | 954.3
19152 kPa | 954.2
19168 kPa | 954.4
19178 kPa | 954.4
19198 kPa | 954.4
19208 kPa | 954.3
19224 kPa | 954.4
19233 kPa | 954.4
19249 kPa | 954.4
19259 kPa | 954.4
19275 kPa | 954.4
19288 kPa | 954.4
19314 kPa | 954.4
19340 kPa | 954.5
19360 kPa | 954.5
19391 kPa | 954.4
19421 kPa | 954.6
19437 kPa | 954.6
19446 kPa | 954.5
19468 kPa | 954.6
19478 kPa | 954.4
19493 kPa | 954.7
19503 kPa | 954.7
19514 kPa | 954.7
19534 kPa | 954.6
19540 kPa | 954.7
19561 kPa | 954.5
19577 kPa | 954.6
19587 kPa | 954.6
19602 kPa | 954.6
19618 kPa | 954.6
19628 kPa | 954.6
19644 kPa | 954.5
19660 kPa | 954.7
19670 kPa | 954.7
19686 kPa | 954.8
19697 kPa | 954.8
19712 kPa | 954.7
19729 kPa | 954.7
19756 kPa | 954.6
19783 kPa | 954.7
19814 kPa | 954.6
19842 kPa | 954.8
19869 kPa | 954.7
19902 kPa | 954.8
19926 kPa | 954.8
19958 kPa | 954.9
19985 kPa | 954.9
20013 kPa | 954.8
20045 kPa | 954.9
20073 kPa | 955
20106 kPa | 955
20134 kPa | 954.9
20162 kPa | 954.9
20189 kPa | 955
20223 kPa | 955
20251 kPa | 955.1
20281 kPa | 955
20292 kPa | 955.2
20310 kPa | 955.1
20321 kPa | 955.1
20344 kPa | 955.1
20350 kPa | 955.1
20373 kPa | 955.1
20384 kPa | 955.1
20401 kPa | 955
20412 kPa | 955.1
20429 kPa | 955.1
20463 kPa | 955.2
20492 kPa | 955.2
20504 kPa | 955.2
20527 kPa | 955.3
20555 kPa | 955.2

Source: the NIST ThermoML archive (doi:10.1021/je060271a)
